# Measurements from US20230053540A1, “TREATMENT OF LIVER INJURY” (Massachusetts Institute of Technology, priority 2019, published 2023).
# Tested on: hepatocytes
# Assay: Seq-Well scRNA-Seq of hepatocytes after APAP overdose (signature scores, DEG vs untreated)
# Format: in vivo, mouse
# [1] = cluster A6, DEG between treatment (APAP and PH)
smiles,measurement,setting,value
"CC(=O)Nc1ccc(O)cc1 [APAP, acetaminophen]",avg_logFC Tmsb4x,[1],0.7911
same,avg_logFC Tnfrsf1a,[1],0.5681
same,avg_logFC Tnfrsf12a,[1],1.105
same,avg_logFC Tns1,[1],0.4001
same,avg_logFC Tra2a,[1],0.7081
same,avg_logFC Trp53inp1,[1],0.8829
same,avg_logFC Tsc22d2,[1],0.3629
same,avg_logFC Tsku,[1],0.3332
same,avg_logFC Tsr1,[1],0.3392
same,avg_logFC Tubb2a,[1],0.786
same,avg_logFC Tubb6,[1],0.5715
same,avg_logFC Txnrd1,[1],1.375
same,avg_logFC Ugdh,[1],0.6085
same,avg_logFC Wbp1l,[1],0.3897
same,avg_logFC Wdr43,[1],0.3083
same,avg_logFC Xbp1,[1],0.5694
same,avg_logFC Ywhag,[1],0.5132
same,avg_logFC Zyx,[1],0.2799
same,avg_logFC mmu-mir-6240,[1],1.032
same,avg_logFC n-R5-8s1,[1],0.4005
same,avg_logFC Acly,"cluster A24 (APAP, 24 h)",0.3005
same,avg_logFC Arcn1,"cluster A24 (APAP, 24 h)",0.2594
same,avg_logFC Cltc,"cluster A24 (APAP, 24 h)",0.2853
same,avg_logFC Cmah,"cluster A24 (APAP, 24 h)",0.2958
same,avg_logFC Ctnnb1,"cluster A24 (APAP, 24 h)",0.25
same,avg_logFC Dnajb11,"cluster A24 (APAP, 24 h)",0.2998
same,avg_logFC Dnajc12,"cluster A24 (APAP, 24 h)",0.2565
same,avg_logFC Etnk1,"cluster A24 (APAP, 24 h)",0.2761
same,avg_logFC Fndc3b,"cluster A24 (APAP, 24 h)",0.2502
same,avg_logFC Gm26917,"cluster A24 (APAP, 24 h)",0.5819
same,avg_logFC Magt1,"cluster A24 (APAP, 24 h)",0.253
same,avg_logFC Nab1,"cluster A24 (APAP, 24 h)",0.2534
same,avg_logFC Nars,"cluster A24 (APAP, 24 h)",0.2657
same,avg_logFC Nedd4,"cluster A24 (APAP, 24 h)",0.2553
same,avg_logFC Ptprf,"cluster A24 (APAP, 24 h)",0.2512
same,avg_logFC Rab1,"cluster A24 (APAP, 24 h)",0.2582
same,avg_logFC Sec61b,"cluster A24 (APAP, 24 h)",0.2648
same,avg_logFC Srebf1,"cluster A24 (APAP, 24 h)",0.2874
same,avg_logFC Usp4,"cluster A24 (APAP, 24 h)",0.2727
same,avg_logFC Usp9x,"cluster A24 (APAP, 24 h)",0.2853
same,avg_logFC 1-Mar,"cluster A48 (APAP, 48 h)",0.2986
same,avg_logFC 0610005C13Rik,"cluster A48 (APAP, 48 h)",0.3977
same,avg_logFC 1600002H07Rik,"cluster A48 (APAP, 48 h)",0.2939
same,avg_logFC Abcb4,"cluster A48 (APAP, 48 h)",0.4702
same,avg_logFC Abcc3,"cluster A48 (APAP, 48 h)",0.4075
same,avg_logFC Abcd2,"cluster A48 (APAP, 48 h)",0.2906
same,avg_logFC Abhd14b,"cluster A48 (APAP, 48 h)",0.4104
same,avg_logFC Acadl1,"cluster A48 (APAP, 48 h)",0.3879
same,avg_logFC Acat1,"cluster A48 (APAP, 48 h)",0.3773
same,avg_logFC Acbd5,"cluster A48 (APAP, 48 h)",0.3517
same,avg_logFC Aco2,"cluster A48 (APAP, 48 h)",0.3054
same,avg_logFC Acot12,"cluster A48 (APAP, 48 h)",0.3091
same,avg_logFC Acsl1,"cluster A48 (APAP, 48 h)",0.3668
same,avg_logFC Agt,"cluster A48 (APAP, 48 h)",0.5339
same,avg_logFC Ahcy,"cluster A48 (APAP, 48 h)",0.4739
same,avg_logFC Ahsg,"cluster A48 (APAP, 48 h)",0.2506
same,avg_logFC Akr1c19,"cluster A48 (APAP, 48 h)",0.3705
same,avg_logFC Aldh9a1,"cluster A48 (APAP, 48 h)",0.4147
same,avg_logFC Aldoa,"cluster A48 (APAP, 48 h)",0.2635
same,avg_logFC Aldob,"cluster A48 (APAP, 48 h)",0.3758
same,avg_logFC Amy1,"cluster A48 (APAP, 48 h)",0.495
same,avg_logFC Anapc13,"cluster A48 (APAP, 48 h)",0.2762
same,avg_logFC Angptl3,"cluster A48 (APAP, 48 h)",0.7705
same,avg_logFC Apoa5,"cluster A48 (APAP, 48 h)",0.4366
same,avg_logFC Apoc1,"cluster A48 (APAP, 48 h)",0.3638
same,avg_logFC Apoc2,"cluster A48 (APAP, 48 h)",0.8142
same,avg_logFC Apoc3,"cluster A48 (APAP, 48 h)",0.3634
same,avg_logFC Apoc4,"cluster A48 (APAP, 48 h)",0.5053
same,avg_logFC Apoe,"cluster A48 (APAP, 48 h)",0.6102
same,avg_logFC Apoh,"cluster A48 (APAP, 48 h)",0.5359
same,avg_logFC Armc1,"cluster A48 (APAP, 48 h)",0.2587
same,avg_logFC Asgr2,"cluster A48 (APAP, 48 h)",0.3431
same,avg_logFC Aspdh,"cluster A48 (APAP, 48 h)",0.326
same,avg_logFC Atf5,"cluster A48 (APAP, 48 h)",0.3544
same,avg_logFC Atp5b,"cluster A48 (APAP, 48 h)",0.3451
same,avg_logFC Atp5g3,"cluster A48 (APAP, 48 h)",0.3996
same,avg_logFC Atp5j,"cluster A48 (APAP, 48 h)",0.4575
same,avg_logFC Atp5k,"cluster A48 (APAP, 48 h)",0.4074
same,avg_logFC Atp5h,"cluster A48 (APAP, 48 h)",0.7312
same,avg_logFC Azgp1,"cluster A48 (APAP, 48 h)",0.2836
same,avg_logFC Bfar,"cluster A48 (APAP, 48 h)",0.3018
same,avg_logFC Bnip3,"cluster A48 (APAP, 48 h)",0.5262
same,avg_logFC Brap,"cluster A48 (APAP, 48 h)",0.3395
same,avg_logFC Camk2n1,"cluster A48 (APAP, 48 h)",0.2578
same,avg_logFC Cd1d1,"cluster A48 (APAP, 48 h)",0.3518
same,avg_logFC Cdo1,"cluster A48 (APAP, 48 h)",0.4301
same,avg_logFC Cebpb,"cluster A48 (APAP, 48 h)",0.4231
same,avg_logFC Ces1b,"cluster A48 (APAP, 48 h)",0.5308
same,avg_logFC Ces1c,"cluster A48 (APAP, 48 h)",0.5861
same,avg_logFC Ces1f,"cluster A48 (APAP, 48 h)",0.3532
same,avg_logFC Ces2a,"cluster A48 (APAP, 48 h)",0.3404
same,avg_logFC Ces1d,"cluster A48 (APAP, 48 h)",0.3324
same,avg_logFC Chchd10,"cluster A48 (APAP, 48 h)",0.814
same,avg_logFC Cox5a,"cluster A48 (APAP, 48 h)",0.4303
same,avg_logFC Cox8a,"cluster A48 (APAP, 48 h)",0.5202
same,avg_logFC Cp,"cluster A48 (APAP, 48 h)",0.2715
same,avg_logFC Cpt2,"cluster A48 (APAP, 48 h)",0.3214
same,avg_logFC Creb3l3,"cluster A48 (APAP, 48 h)",0.3228
same,avg_logFC Creg1,"cluster A48 (APAP, 48 h)",0.418
same,avg_logFC Ctsd,"cluster A48 (APAP, 48 h)",0.3237
same,avg_logFC Ctsh,"cluster A48 (APAP, 48 h)",0.4649
